Source: PubChem BioAssay (NCI)
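96-well plates; 48 h exposure; 5 concentrations. Endpoints by linear interpolation between flanking doses. Not reached: highest tested concentration assigned. TGI: concentration producing complete growth inhibition.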

How the values were obtained:
Assay in all cases: growth of human tumour cells (NCI), 48 h
[1] = test system: 786-0 renal
[2] = test system: A498 renal
[3] = test system: A549 NSCLC
[4] = test system: ACHN renal
[5] = test system: CAKI-1 renal
[6] = test system: DLD-1 colon
[7] = test system: DMS 114 small cell lung
[8] = test system: DMS 273 small cell lung
[9] = test system: EKVX NSCLC
[10] = test system: HCC-2998 colon
[11] = test system: HCT-116 colon
[12] = test system: HCT-15 colon
[13] = test system: HL-60(TB) leukemia
[14] = test system: HOP-18 NSCLC
[15] = test system: HOP-62 NSCLC
[16] = test system: HOP-92 NSCLC
[17] = test system: HT29 colon
[18] = test system: IGROV1 ovarian
[19] = test system: K-562 leukemia
[20] = test system: KM12 colon
[21] = test system: KM20L2 colon
[22] = test system: LOX IMVI melanoma
[23] = test system: LXFL 529 NSCLC
[24] = test system: M14 melanoma
[25] = test system: M19-MEL melanoma
[26] = test system: MALME-3M melanoma
[27] = test system: MOLT-4 leukemia
[28] = test system: NCI-H226 lung
[29] = test system: NCI-H23 lung
[30] = test system: NCI-H460 lung
[31] = test system: OVCAR-3 ovarian
[32] = test system: OVCAR-4 ovarian
[33] = test system: OVCAR-5 ovarian
[34] = test system: OVCAR-8 ovarian
[35] = test system: RPMI-8226 leukemia
[36] = test system: RXF 393 renal
[37] = test system: RXF-631 renal
[38] = test system: SF-268 CNS
[39] = test system: SF-295 CNS
[40] = test system: SF-539 CNS
[41] = test system: SK-MEL-2 melanoma
[42] = test system: SK-MEL-28 melanoma
[43] = test system: SK-MEL-5 melanoma
[44] = test system: SN12C renal
[45] = test system: SNB-19 CNS
[46] = test system: SNB-75 CNS
[47] = test system: SNB-78 CNS
[48] = test system: SW-620 colon
[49] = test system: TK-10 renal
[50] = test system: U251 CNS
[51] = test system: UACC-257 melanoma
[52] = test system: UACC-62 melanoma
[53] = test system: UO-31 renal
[54] = test system: CCRF-CEM leukemia
[55] = test system: COLO 205 colon
[56] = test system: NCI-H522 lung
[57] = test system: SK-OV-3 ovarian
[58] = test system: SR leukemia
[59] = test system: XF 498 CNS

In the case of Nc1nc(N)c(-c2ccccc2)c(C(=O)Nc2ccc(Cl)c(Cl)c2)n1, the TGI [1] is reported as greater than 100 µM, the TGI [2] is reported as greater than 100 µM and the TGI [3] is reported as greater than 100 µM. For the same compound, the TGI [4] was greater than 100 µM, the TGI [5] was greater than 100 µM and the TGI [6] was greater than 100 µM. The TGI [7] was greater than 100 µM, the TGI [8] was greater than 100 µM and the TGI [9] was greater than 100 µM. For the same compound, the TGI [10] was greater than 100 µM, the TGI [11] was greater than 100 µM and the TGI [12] was greater than 100 µM. The TGI [13] was greater than 100 µM, the TGI [14] was greater than 100 µM and the TGI [15] was greater than 100 µM. It also gave a TGI [16] greater than 100 µM, a TGI [17] greater than 100 µM and a TGI [18] greater than 100 µM. For the same compound, the TGI [19] was greater than 100 µM, the TGI [20] was greater than 100 µM and the TGI [21] was greater than 100 µM. It also gave a TGI [22] greater than 100 µM, a TGI [23] greater than 100 µM and a TGI [24] greater than 100 µM. The TGI [25] was greater than 100 µM, the TGI [26] was greater than 100 µM and the TGI [27] was greater than 100 µM. For the same compound, the TGI [28] was greater than 100 µM, the TGI [29] was greater than 100 µM and the TGI [30] was greater than 100 µM. The TGI [31] was greater than 100 µM, the TGI [32] was greater than 100 µM and the TGI [33] was greater than 100 µM. For the same compound, the TGI [34] was greater than 100 µM, the TGI [35] was greater than 100 µM and the TGI [36] was greater than 100 µM. For the same compound, the TGI [37] was greater than 100 µM, the TGI [38] was greater than 100 µM and the TGI [39] was greater than 100 µM. For the same compound, the TGI [40] was greater than 100 µM, the TGI [41] was greater than 100 µM and the TGI [42] was greater than 100 µM. For the same compound, the TGI [43] was greater than 100 µM, the TGI [44] was greater than 100 µM and the TGI [45] was greater than 100 µM. The TGI [46] was greater than 100 µM, the TGI [47] was greater than 100 µM and the TGI [48] was greater than 100 µM. It also gave a TGI [49] greater than 100 µM, a TGI [50] greater than 100 µM and a TGI [51] greater than 100 µM. The TGI [52] was greater than 100 µM and the TGI [53] was greater than 100 µM.

Compound c1ccc2cc3n[se]nc3cc2c1 has a TGI [3] greater than 100 µM, a TGI [4] greater than 100 µM and a TGI [5] greater than 100 µM. For the same compound, the TGI [54] was greater than 100 µM, the TGI [55] was greater than 100 µM and the TGI [6] was greater than 100 µM. For the same compound, the TGI [7] was greater than 100 µM, the TGI [8] was greater than 100 µM and the TGI [9] was greater than 100 µM. The TGI [10] was greater than 100 µM, the TGI [12] was greater than 100 µM and the TGI [13] was greater than 100 µM. The TGI [17] was greater than 100 µM, the TGI [18] was greater than 100 µM and the TGI [19] was greater than 100 µM. It also gave a TGI [20] greater than 100 µM, a TGI [21] greater than 100 µM and a TGI [22] greater than 100 µM. The TGI [23] was greater than 100 µM, the TGI [24] was greater than 100 µM and the TGI [26] was greater than 100 µM. The TGI [27] was greater than 100 µM, the TGI [29] was greater than 100 µM and the TGI [56] was greater than 100 µM. For the same compound, the TGI [32] was greater than 100 µM, the TGI [33] was greater than 100 µM and the TGI [34] was greater than 100 µM. The TGI [35] was greater than 100 µM, the TGI [36] was greater than 100 µM and the TGI [37] was greater than 100 µM. The TGI [38] was greater than 100 µM, the TGI [39] was greater than 100 µM and the TGI [40] was greater than 100 µM. It also gave a TGI [41] greater than 100 µM, a TGI [42] greater than 100 µM and a TGI [43] greater than 100 µM. For the same compound, the TGI [57] was greater than 100 µM, the TGI [44] was greater than 100 µM and the TGI [45] was greater than 100 µM. The TGI [46] was greater than 100 µM, the TGI [47] was greater than 100 µM and the TGI [48] was greater than 100 µM. For the same compound, the TGI [49] was greater than 100 µM, the TGI [50] was greater than 100 µM and the TGI [51] was greater than 100 µM. The TGI [52] was greater than 100 µM and the TGI [53] was greater than 100 µM.

O=C(O)/C(O)=C1/C=C(c2ccccc2)c2ccccc21 was tested, and the TGI [1] was 78 µM, the TGI [2] was 98.9 µM and the TGI [3] was 71.4 µM. It also gave a TGI [4] of 94.5 µM, a TGI [5] of 63.6 µM and a TGI [54] of 46.6 µM. The TGI [55] was 31.9 µM, the TGI [6] was greater than 100 µM and the TGI [7] was 37.6 µM. For the same compound, the TGI [8] was 33.1 µM, the TGI [10] was 49.8 µM and the TGI [11] was 37.6 µM. It also gave a TGI [12] of 50.6 µM, a TGI [13] of 45.6 µM and a TGI [14] of 47.4 µM. The TGI [15] was 55.2 µM, the TGI [16] was 34.8 µM and the TGI [17] was 86.8 µM. The TGI [18] was 51.8 µM, the TGI [19] was 73.5 µM and the TGI [20] was 32.4 µM. For the same compound, the TGI [21] was 97.2 µM, the TGI [22] was 36.1 µM and the TGI [23] was 91.4 µM. For the same compound, the TGI [24] was 45.3 µM, the TGI [25] was 60.1 µM and the TGI [26] was 71.3 µM. For the same compound, the TGI [27] was 43.8 µM, the TGI [28] was 59.6 µM and the TGI [30] was 62.7 µM. For the same compound, the TGI [56] was 30.9 µM, the TGI [32] was 80.7 µM and the TGI [33] was 72.2 µM. It also gave a TGI [34] of 59.4 µM, a TGI [35] of 56.8 µM and a TGI [36] of 35.6 µM. It also gave a TGI [37] of 86.3 µM, a TGI [38] of 51.7 µM and a TGI [39] of 32.9 µM. For the same compound, the TGI [40] was 82.3 µM, the TGI [41] was 33.1 µM and the TGI [43] was 34 µM. For the same compound, the TGI [57] was greater than 100 µM, the TGI [44] was 61.9 µM and the TGI [45] was 83.9 µM. It also gave a TGI [46] of 61.7 µM, a TGI [47] greater than 100 µM and a TGI [58] of 47.1 µM. The TGI [48] was 37.7 µM, the TGI [49] was 79.8 µM and the TGI [50] was 35.9 µM. For the same compound, the TGI [51] was 48.1 µM, the TGI [52] was 30 µM and the TGI [53] was 41.6 µM.

With CC1CC2C3CC(F)C4=CC(=O)C=CC4(C)C3(F)C(O)CC2(C)C1(O)C(=O)CO (configuration not stated) the TGI [1] was greater than 100 µM, the TGI [3] was greater than 100 µM and the TGI [4] was greater than 100 µM. The TGI [5] was greater than 100 µM, the TGI [54] was greater than 100 µM and the TGI [55] was greater than 100 µM. It also gave a TGI [6] greater than 100 µM, a TGI [7] greater than 100 µM and a TGI [8] greater than 100 µM. The TGI [9] was greater than 100 µM, the TGI [10] was greater than 100 µM and the TGI [11] was greater than 100 µM. For the same compound, the TGI [12] was greater than 100 µM, the TGI [13] was greater than 100 µM and the TGI [15] was greater than 100 µM. For the same compound, the TGI [16] was greater than 100 µM, the TGI [17] was greater than 100 µM and the TGI [18] was greater than 100 µM. It also gave a TGI [19] greater than 100 µM, a TGI [20] greater than 100 µM and a TGI [21] greater than 100 µM. For the same compound, the TGI [22] was greater than 100 µM, the TGI [24] was greater than 100 µM and the TGI [25] was greater than 100 µM. It also gave a TGI [26] greater than 100 µM, a TGI [27] greater than 100 µM and a TGI [28] greater than 100 µM. It also gave a TGI [29] greater than 100 µM, a TGI [30] greater than 100 µM and a TGI [56] greater than 100 µM. The TGI [31] was greater than 100 µM, the TGI [32] was greater than 100 µM and the TGI [35] was greater than 100 µM. For the same compound, the TGI [36] was greater than 100 µM, the TGI [37] was greater than 100 µM and the TGI [38] was greater than 100 µM. The TGI [39] was greater than 100 µM, the TGI [40] was greater than 100 µM and the TGI [41] was greater than 100 µM. It also gave a TGI [42] greater than 100 µM, a TGI [43] greater than 100 µM and a TGI [57] greater than 100 µM. The TGI [45] was greater than 100 µM, the TGI [46] was greater than 100 µM and the TGI [47] was greater than 100 µM. The TGI [58] was greater than 100 µM, the TGI [48] was greater than 100 µM and the TGI [49] was greater than 100 µM. For the same compound, the TGI [50] was greater than 100 µM, the TGI [51] was greater than 100 µM and the TGI [52] was greater than 100 µM. It also gave a TGI [53] greater than 100 µM and a TGI [59] greater than 100 µM.
